This note sets out measurements from US9919998B2, “Antibacterial agents: Nα-aroyl-N-aryl-phenylalaninamides” (priority 2014, dated 2018).

What all share (format): cell-based
The test system of data set [1] is Mycobacterium smegmatis ATCC 19420. In words: Broth microdilution MIC, M. smegmatis. The note with it: Mycolicibacterium smegmatis, ATCC19420, M. smegmatis ATCC 19420; read-out: MIC Mycobacterium smegmatis ATCC 19420. From the text:
MICs in Mycobacterium smegmatis ATCC 19420 and Mycobacterium smegmatis ATCC 19420 derivatives were quantified using broth microdilution assays as described [Clinical and Laboratory Standards Institute (CLSI/NCCLS) (2009) Methods for Dilution Antimicrobial Susceptibility Tests for Bacteria That Grow Aerobically; Approved Standard, Eighth Edition. CLIS Document M07-A8 (CLIS, Wayne Pa.)].
For orientation: Broth dilution looks for growth in wells or tubes with falling amounts of substance.

The subject of data set [2] is Mycobacterium avium ATCC 25291. The experiment in a line: Microplate Alamar Blue assay (MABA) MIC, M. avium. The note with it: ATCC25291, M. avium ATCC 25291. From the text: (§1) Minimal inhibitory concentrations (MICs) in Mycobacterium tuberculosis H37Rv and Mycobacterium avium ATCC 25291 were quantified using microplate Alamar Blue assays as described (MABA; [Collins, L. & Franzblau, S. (1997) Microplate Alamar Blue assay versus BACTEC 460 system for high-throughput screening of compounds against Mycobacterium tuberculosis and Mycobacterium avium. Antimicrob. Agents Chemother. 41, 1004-1009]).

The test system of data set [3] is Vero E6 ATCC CRL1586 cells. The experiment in a line: Mammalian-cell cytotoxicity, minimal cytotoxic concentration (CellTiter96). As for the experimental part: Minimal cytotoxic concentrations (MCCs) against mammalian cells in culture were determined using Vero E6 ATCC CRL1586 cells and the CellTiter96 assay kit (Promega, Inc.). […]
Data set [4] has as its system Mycobacterium tuberculosis H37Rv. In words: Microplate Alamar Blue assay (MABA) MIC, M. tuberculosis. The note with it: read-out: MIC Mycobacterium tuberculosis H37Rv.
Description: as §1
On the technique in general: The colour change of resazurin is a common sign of viable cells or microbes.

In general, MIC refers to the lowest concentration that inhibits growth of the organism.

Structures are written as SMILES. In brackets after ≈: the same amount, converted by molar mass.

For the compound `CC(C)Oc1ccccc1NC(=O)C(Cc1ccccc1)NC(=O)c1ccccc1` (stereo not drawn) [I-50], the minimal inhibitory concentration (MIC) was 0.78 µg/mL (≈ 1.94 µM) in data set [1], greater than 50 µg/mL in data set [2] and 12.5 µg/mL (≈ 31.1 µM) in data set [4]. In data set [3], the “MCC mammalian cells Vero E6 ATCC CRL1586” value is greater than 100 µg/mL.
The corresponding values for `Cc1c(NC(=O)C(Cc2ccccc2)NC(=O)c2ccccc2)cccc1OC(C)C` (stereo not drawn) [I-51] are 1.56 µg/mL (≈ 3.75 µM), greater than 50 µg/mL, greater than 50 µg/mL and greater than 100 µg/mL.
The corresponding values for `O=C(NC(Cc1ccccc1)C(=O)Nc1ccccc1OC(F)F)c1ccccc1` (stereo not drawn) [I-61, N-(1-((2-(difluoromethoxy)phenyl)amino)-1-oxo-3-phenylpropan-2-yl)benzamide] are 0.39 µg/mL (≈ 0.95 µM), 6.25 µg/mL (≈ 15.2 µM), 6.25 µg/mL (≈ 15.2 µM) and greater than 100 µg/mL.
The corresponding values for `Cc1ccccc1NC(=O)C(Cc1ccccc1)NC(=O)c1cccc(OC(F)F)c1` (stereo not drawn) [I-70] are 50 µg/mL (≈ 118 µM), greater than 50 µg/mL, 6.25 µg/mL (≈ 14.7 µM) and 90 µg/mL.
Regarding `Cc1c(F)cccc1NC(=O)C(Cc1ccccc1)NC(=O)c1ccccc1` (stereo not drawn) [I-73], the minimum inhibitory concentration (MIC) in data set [1] is 0.78 µg/mL (≈ 2.07 µM); in data set [2] it was greater than 50 µg/mL; in data set [4], greater than 50 µg/mL. Moreover, in data set [3], the “MCC mammalian cells Vero E6 ATCC CRL1586” value came to 19 µg/mL.
For the compound `Cc1cccc(NC(=O)C(Cc2ccccc2)NC(=O)c2ccccc2)c1C` (stereo not drawn) [I-105], the minimum inhibitory concentration (MIC) in data set [1] is 0.39 µg/mL (≈ 1.05 µM); in data set [2] it was 12.5 µg/mL (≈ 33.6 µM); in data set [4], 3.12 µg/mL (≈ 8.39 µM). Besides, in data set [3], the “MCC mammalian cells Vero E6 ATCC CRL1586” value came to 21 µg/mL.
The corresponding values for `CCc1cccc(NC(=O)C(Cc2ccccc2)NC(=O)c2ccccc2)c1C` (stereo not drawn) [I-116] are 0.78 µg/mL (≈ 2.02 µM), 6.25 µg/mL (≈ 16.2 µM), 6.25 µg/mL (≈ 16.2 µM) and 90 µg/mL.
The corresponding values for `CCc1ccccc1C(=O)NC(Cc1ccccc1)C(=O)Nc1ccccc1C` (stereo not drawn) [I-123] are 1.56 µg/mL (≈ 4.04 µM), greater than 50 µg/mL, greater than 50 µg/mL and greater than 100 µg/mL.
The corresponding values for `CCCc1ccccc1NC(=O)C(Cc1ccccc1)NC(=O)c1ccccc1` (stereo not drawn) [I-126] are 1.56 µg/mL (≈ 4.04 µM), greater than 50 µg/mL, greater than 50 µg/mL and 10 µg/mL.
Take `CCCc1cccc(NC(=O)C(Cc2ccccc2)NC(=O)c2ccccc2)c1C` (stereo not drawn) [I-127]: the MIC in data set [1] is 3.12 µg/mL (≈ 7.8 µM); in data set [2] it was greater than 50 µg/mL; in data set [4] it was greater than 50 µg/mL. The “MCC mammalian cells Vero E6 ATCC CRL1586” value in data set [3] is 100 µg/mL.
Take `Cc1c(NC(=O)C(Cc2ccccc2)NC(=O)c2ccccc2)cccc1C(C)C` (stereo not drawn) [I-138]: the MIC in data set [1] was 0.78 µg/mL (≈ 1.95 µM); in data set [2], greater than 50 µg/mL; in data set [4], 6.25 µg/mL (≈ 15.6 µM). Also, the “MCC mammalian cells Vero E6 ATCC CRL1586” value in data set [3] was greater than 100 µg/mL.
The corresponding values for `O=C(NC(Cc1ccccc1)C(=O)Nc1ccccc1C(F)F)c1ccccc1` (stereo not drawn) [I-148] are 3.12 µg/mL (≈ 7.92 µM), greater than 50 µg/mL, 6.25 µg/mL (≈ 15.8 µM) and 100 µg/mL.
`Cc1c(NC(=O)C(Cc2ccccc2)NC(=O)c2ccccc2)cccc1C(F)F` (stereo not drawn) [I-149]: the MIC in data set [1] was 0.39 µg/mL (≈ 0.955 µM); in data set [2], greater than 50 µg/mL; in data set [4] it was greater than 50 µg/mL. Besides, in data set [3], the “MCC mammalian cells Vero E6 ATCC CRL1586” value was 20 µg/mL.
Regarding `O=C(NC(Cc1ccccc1)C(=O)Nc1ccccc1N1CCCC1)c1ccccc1` (stereo not drawn) [I-192], the MIC in data set [1] stood at 0.78 µg/mL (≈ 1.89 µM); in data set [2] it was 25 µg/mL (≈ 60.5 µM); in data set [4], 9.4 µg/mL (≈ 22.7 µM). Further, in data set [3], the “MCC mammalian cells Vero E6 ATCC CRL1586” value is greater than 100 µg/mL.
The matching figures for `Cc1c(NC(=O)C(Cc2ccccc2)NC(=O)c2ccccc2)cccc1N1CCCC1` (stereo not drawn) [I-193]: 6.25 µg/mL (≈ 14.6 µM), 50 µg/mL (≈ 117 µM), 6.25 µg/mL (≈ 14.6 µM) and greater than 100 µg/mL.
The corresponding values for `O=C(NC(Cc1ccccc1)C(=O)Nc1ccccc1-n1cncn1)c1ccccc1` (stereo not drawn) [I-203] are 0.78 µg/mL (≈ 1.9 µM), 50 µg/mL (≈ 122 µM), 12.5 µg/mL (≈ 30.4 µM) and greater than 100 µg/mL.
The matching figures for `O=C(NC(Cc1ccccc1)C(=O)Nc1cccc2[nH]ccc12)c1ccccc1` (stereo not drawn) [II-27]: 0.39 µg/mL (≈ 1.02 µM), greater than 50 µg/mL, 12.5 µg/mL (≈ 32.6 µM) and 41 µg/mL.
Take `O=C(NC(Cc1ccccc1)C(=O)Nc1cccc2sccc12)c1ccccc1` (stereo not drawn) [II-46]: the MIC in data set [1] was 0.195 µg/mL (≈ 0.487 µM); in data set [2] it was 3.12 µg/mL (≈ 7.8 µM); in data set [4], 3.12 µg/mL (≈ 7.8 µM). Also, the “MCC mammalian cells Vero E6 ATCC CRL1586” value in data set [3] is greater than 100 µg/mL.
With `O=C(NC(Cc1ccccc1)C(=O)Nc1cccc2ccsc12)c1ccccc1` (stereo not drawn) [II-47], the figures for the MIC in data set [1], in data set [2] and in data set [4] were 1.56 µg/mL (≈ 3.9 µM), 3.12 µg/mL (≈ 7.8 µM) and 1.56 µg/mL (≈ 3.9 µM), respectively. The “MCC mammalian cells Vero E6 ATCC CRL1586” value in data set [3] is greater than 100 µg/mL.
Take `O=C(NC(Cc1ccccc1)C(=O)Nc1cccc2ccoc12)c1ccccc1` (stereo not drawn) [II-65]: the MIC in data set [1] was 0.39 µg/mL (≈ 1.01 µM); in data set [2], greater than 50 µg/mL; in data set [4], greater than 50 µg/mL. The “MCC mammalian cells Vero E6 ATCC CRL1586” value in data set [3] turned out to be 78 µg/mL.
For the compound `O=C(NC(Cc1ccc(O)cc1)C(=O)Nc1cccc2c1CCCC2)c1ccccc1` (stereo not drawn) [IX-6, N-(3-(4-hydroxyphenyl)-1-oxo-1-((5,6,7,8-tetrahydronaphthalen-1-yl)amino)propan-2-yl)benzamide], the results for the MIC in data set [1], in data set [2] and in data set [4] were 1.56 µg/mL (≈ 3.76 µM), 6.25 µg/mL (≈ 15.1 µM) and 6.25 µg/mL (≈ 15.1 µM), respectively. Besides, the “MCC mammalian cells Vero E6 ATCC CRL1586” value in data set [3] came out at 21 µg/mL.
Take `O=C(NC(Cc1ccccc1)C(=O)Nc1cccc2ccncc12)c1ccccc1` (stereo not drawn) [IX-15, N-(1-(isoquinolin-8-ylamino)-1-oxo-3-phenylpropan-2-yl)benzamide]: the MIC in data set [1] was 0.78 µg/mL (≈ 1.97 µM); in data set [2] it was 25 µg/mL (≈ 63.2 µM); in data set [4], 6.25 µg/mL (≈ 15.8 µM). In addition, the “MCC mammalian cells Vero E6 ATCC CRL1586” value in data set [3] amounted to 85 µg/mL.
Turning to `O=C(NC(Cc1ccc(O)cc1)C(=O)Nc1cccc2ccncc12)c1ccccc1` (stereo not drawn) [IX-18, N-(3-(4-hydroxyphenyl)-1-(isoquinolin-8-ylamino)-1-oxopropan-2-yl)benzamide], the MIC in data set [1] amounted to 0.39 µg/mL (≈ 0.948 µM); in data set [2], 12.5 µg/mL (≈ 30.4 µM); in data set [4], 6.25 µg/mL (≈ 15.2 µM). Further, the “MCC mammalian cells Vero E6 ATCC CRL1586” value in data set [3] is greater than 100 µg/mL.
As for `O=C(NC(Cc1ccc(O)cc1)C(=O)Nc1cccc2c1OCCO2)c1ccccc1` (stereo not drawn) [IX-21, N-(1-((2,3-dihydrobenzo[b][1,4]dioxin-5-yl)amino)-3-(4-hydroxyphenyl)-1-oxopropan-2-yl)benzamide], the minimal inhibitory concentration (MIC) in data set [1] amounted to 0.78 µg/mL (≈ 1.86 µM); in data set [2] it was 6.25 µg/mL (≈ 14.9 µM); in data set [4], 6.25 µg/mL (≈ 14.9 µM). Besides, in data set [3], the “MCC mammalian cells Vero E6 ATCC CRL1586” value was greater than 100 µg/mL.
Consider `COc1ccccc1NC(=O)C(Cc1ccc(O)cc1)NC(=O)c1ccccc1` (stereo not drawn) [IX-26, N-(3-(4-hydroxyphenyl)-1-((2-methoxyphenyl)amino)-1-oxopropan-2-yl)benzamide], for which the MIC is 1.25 µg/mL (≈ 3.2 µM) in data set [1], 50 µg/mL (≈ 128 µM) in data set [2] and 25 µg/mL (≈ 64 µM) in data set [4]. The “MCC mammalian cells Vero E6 ATCC CRL1586” value in data set [3] is greater than 100 µg/mL.
The corresponding values for `Cc1ccccc1NC(=O)C(Cc1ccc(O)cc1)NC(=O)c1cccs1` (stereo not drawn) [IX-28, N-(3-(4-hydroxyphenyl)-1-oxo-1-(o-tolylamino)propan-2-yl)thiophene-2-carboxamide] are 0.39 µg/mL (≈ 1.03 µM), 12.5 µg/mL (≈ 32.9 µM), 12.5 µg/mL (≈ 32.9 µM) and 80 µg/mL.
For the compound `COc1ccccc1NC(=O)C(Cc1ccccc1)NC(=O)c1cccs1` (stereo not drawn) [IX-29, N-(1-((2-methoxyphenyl)amino)-1-oxo-3-phenylpropan-2-yl)thiophene-2-carboxamide], the MIC amounted to 0.195 µg/mL (≈ 0.513 µM) in data set [1], 6.25 µg/mL (≈ 16.4 µM) in data set [2] and 3.12 µg/mL (≈ 8.21 µM) in data set [4]. The “MCC mammalian cells Vero E6 ATCC CRL1586” value in data set [3] is greater than 100 µg/mL.
The corresponding values for `O=C(NC(Cc1ccccc1)C(=O)Nc1cccc2cnccc12)c1cccs1` (stereo not drawn) [IX-30, N-(1-(isoquinolin-5-ylamino)-1-oxo-3-phenylpropan-2-yl)thiophene-2-carboxamide] are 0.195 µg/mL (≈ 0.486 µM), 6.25 µg/mL (≈ 15.6 µM), 3.12 µg/mL (≈ 7.78 µM) and 37 µg/mL.
The matching figures for `O=C(NC(Cc1ccccc1)C(=O)Nc1cccc2c1OCCO2)c1cccs1` (stereo not drawn) [IX-31, N-(1-((2,3-dihydrobenzo[b][1,4]dioxin-5-yl)amino)-1-oxo-3-phenylpropan-2-yl)thiophene-2-carboxamide]: 0.195 µg/mL (≈ 0.477 µM), 3.12 µg/mL (≈ 7.65 µM), 3.12 µg/mL (≈ 7.65 µM) and 30 µg/mL.
For the compound `COc1ccccc1NC(=O)C(Cc1ccc(O)cc1)NC(=O)c1cccs1` (stereo not drawn) [IX-32, N-(3-(4-hydroxyphenyl)-1-((2-methoxyphenyl)amino)-1-oxopropan-2-yl)thiophene-2-carboxamide], the minimal inhibitory concentration (MIC) worked out at 0.195 µg/mL (≈ 0.492 µM) in data set [1], 6.25 µg/mL (≈ 15.8 µM) in data set [2] and 12.5 µg/mL (≈ 31.5 µM) in data set [4]. For the same compound, in data set [3], the “MCC mammalian cells Vero E6 ATCC CRL1586” value worked out at 100 µg/mL.
